We go through 20 molecules from publication PMC5439695 (PLoS ONE, 2017).

Structures can show the parent of a compound that is named as a salt.

One test concerns estrogen receptor (ER). The note with it: cited from earlier work; for AUC score in Judson 2015: ER antagonist, ToxCast chemicals only, ref Judson 2015; for ER antagonist AUC score: pathway-level model using all Tox21/ToxCast ER assays of 1812 ToxCast chemicals.
Test [1] concerns HEK293 and HepG2 cell lines. The settings on record: for Cyto(realtime)_max / Cyto(realtime)_median: POD potency; for Cyto(realtime)_max: max over real-time cytotoxicity assays; for Cyto(realtime)_median: median over real-time cytotoxicity assays.
Test [2] concerns HepG2 cells. Nature of the test: CellTox Green Cytotoxicity Assay (flor) in HepG2, HepG2[flor].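 On hepg2 flor emax 0: percent activity versus DMSO-only wells with baseline rescaled to 0%.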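 On hepg2 flor emax 40: percent activity versus DMSO-only wells with baseline rescaled to 0%.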 Type of test: cell-based, human. The settings on record: HepG2 flor.
Test [3] deals with HEK293 cells. The settings on record: HEK293 glo.
The subject of test [4] is HepG2 cells. The note with it: HepG2 glo.
Test [5] concerns HEK293 cells. The settings on record: HEK293 flor.
Where [6] appears, read: time point 8, given as negative log-scale values.
[7] abbreviates: time point 16, given as negative log-scale values.
The mark [8] stands for this setting: time point 24, given as negative log-scale values.
Where [9] appears, read: time point 32, given as negative log-scale values.
The mark [10] stands for this setting: time point 40, given as negative log-scale values.

For the molecule `C[C@@]1(c2ccc(Oc3ccccc3)cc2)OC(=O)N(Nc2ccccc2)C1=O` (racemic) [Famoxadone], in the test on estrogen receptor (ER), the “AUC score in Judson 2015” value is listed as 0.000714.
Turning to `CCC(C)(C)c1ccc(O)c(C(C)(C)CC)c1` [2,4-Bis(2-methylbutan-2-yl)phenol], the “AUC score in Judson 2015” value with estrogen receptor (ER) is recorded as 0.00113.
`CC(C)(C)c1ccc(O)c(C(C)(C)C)c1` [2,4-Di-tert-butylphenol]: in the test on estrogen receptor (ER), the “AUC score in Judson 2015” value is 0.
With `CCCCNC(=O)OCC#CI` [3-Iodo-2-propynyl-N-butylcarbamate], in test [1], the “Cyto(realtime)_max” value was 5.74 log10(M)*-1 and the “Cyto(realtime)_median” value is recorded as 4.62 log10(M)*-1. Further, in the test with estrogen receptor (ER), the “AUC score in Judson 2015” value is reported as 0.0283.
In the case of `CC/C(=C(\c1ccc(O)cc1)c1ccc(OCCN(C)C)cc1)c1ccccc1` [4-Hydroxytamoxifen], in the test on estrogen receptor (ER), the “AUC score in Judson 2015” value is on record as 0.686.
`CC(C)c1cccc(C(C)C)c1N1C(=O)c2ccc(O)cc2C1=O` [5HPP-33]: in test [1], the “Cyto(realtime)_max” value is recorded as 4.71 log10(M)*-1 and the “Cyto(realtime)_median” value was 4.30 log10(M)*-1. The “AUC score in Judson 2015” value in the test on estrogen receptor (ER) is on record as 0.
Consider `O=C1C2CC=CCC2C(=O)N1SC(Cl)(Cl)Cl` (stereo not drawn) [Captan], for which, in the test on estrogen receptor (ER), the “AUC score in Judson 2015” value was 0.
As to `Clc1ccccc1C(c1ccccc1)(c1ccccc1)n1ccnc1` [Clotrimazole, reference compound], in the test with estrogen receptor (ER), the “AUC score in Judson 2015” value is 0.00844.
With `CC(C)(C)c1cc(/C=C2\SC(N)=NC2=O)cc(C(C)(C)C)c1O` [Darbufelone mesylate], the “AUC score in Judson 2015” value in the test with estrogen receptor (ER) is reported as 0.
In the case of `OC(c1ccc(Cl)cc1)(c1cncnc1)c1ccccc1Cl` (stereo not drawn) [Fenarimol], the “AUC score in Judson 2015” value in the test on estrogen receptor (ER) is on record as 0.000907.
Consider `CCCCC(O)(Cn1cncn1)c1ccc(Cl)cc1Cl` (stereo not drawn) [Hexaconazole], for which the “AUC score in Judson 2015” value in the test with estrogen receptor (ER) is given as 0.00822.
Turning to `CC(C)C1CCC(Cc2ccc(Cl)cc2)C1(O)Cn1cncn1` (stereo not drawn) [Ipconazole], the “AUC score in Judson 2015” value in the test on estrogen receptor (ER) was 0.0166.
For `CN(C)c1ccc(C(=C2C=CC(=[N+](C)C)C=C2)c2ccccc2)cc1.CN(C)c1ccc(C(=C2C=CC(=[N+](C)C)C=C2)c2ccccc2)cc1.O=C(O)C(=O)O.O=C([O-])C(=O)O.O=C([O-])C(=O)O` [Malachite green oxalate], in the test on HepG2 cells [2], the hepg2_flor_auc turned out to be 1.813 and the hepg2_flor_time worked out at 8. In the test on HepG2 cells [2] (kinetics bin), the hepg2_flor_bin entry was “cv_26 (cv_26: 8 < time < 16)”. In the test on HepG2 cells [2] (time point 0), the hepg2_flor_emax_0 was determined as 0, the hepg2_flor_pod_0 is given as -4.417 and the hepg2_flor_wauc_0 amounted to 0. In addition, in the test on HepG2 cells [2] (time point 8), the hepg2_flor_emax_8 was 44.8674, the hepg2_flor_pod_8 is -4.571 and the hepg2_flor_wauc_8 was determined as 0.868. Besides, the hepg2_flor_ec50_8 in the test with HepG2 cells [2] (setting [6]) is given as -4.591. Besides, in the test with HepG2 cells [2] (time point 16), the hepg2_flor_emax_16 worked out at 142.047, the hepg2_flor_pod_16 is -5.554 and the hepg2_flor_wauc_16 amounted to 1.871. Further, in the test on HepG2 cells [2] (setting [7]), the hepg2_flor_ec50_16 is -4.76. Moreover, in the test on HepG2 cells [2] (time point 24), the hepg2_flor_emax_24 is 168.072, the hepg2_flor_pod_24 is listed as -5.707 and the hepg2_flor_wauc_24 is on record as 2.035. The hepg2_flor_ec50_24 in the test on HepG2 cells [2] (setting [8]) is listed as -5.438. Besides, in the test on HepG2 cells [2] (time point 32), the hepg2_flor_emax_32 stood at 231.16, the hepg2_flor_pod_32 is -5.746 and the hepg2_flor_wauc_32 is recorded as 2.119. Moreover, in the test on HepG2 cells [2] (setting [9]), the hepg2_flor_ec50_32 is listed as -5.498. Moreover, in the test on HepG2 cells [2] (time point 40), the hepg2_flor_emax_40 was determined as 275.23, the hepg2_flor_pod_40 was -6.016 and the hepg2_flor_wauc_40 is on record as 2.222. Moreover, in the test with HepG2 cells [2] (setting [10]), the hepg2_flor_ec50_40 is given as -5.565. The information in test [1] (any activity in any time point/assay) amounted to 1. In the test with HEK293 cells [3], this molecule registered a hek293_glo_auc of 1.897 and a hek293_glo_time of 8. The hek293_glo_bin result in the test on HEK293 cells [3] (kinetics bin) is on record as “cv_26 (cv_26: 8 < time < 16)”. Besides, in the test on HEK293 cells [3] (time point 0), the hek293_glo_emax_0 is listed as 0, the hek293_glo_pod_0 is -4.417 and the hek293_glo_wauc_0 is reported as 0. Besides, in the test with HEK293 cells [3] (time point 8), the hek293_glo_emax_8 is -47.964, the hek293_glo_pod_8 is given as -5.267 and the hek293_glo_wauc_8 turned out to be 1.621. Moreover, the hek293_glo_ec50_8 with HEK293 cells [3] (setting [6]) is given as -5.275. Besides, in the test on HEK293 cells [3] (time point 16), the hek293_glo_emax_16 is -74.3913, the hek293_glo_pod_16 is -6.896 and the hek293_glo_wauc_16 is listed as 2.239. Besides, the hek293_glo_ec50_16 in the test with HEK293 cells [3] (setting [7]) was -5.71. In addition, in the test on HEK293 cells [3] (time point 24), the hek293_glo_emax_24 is listed as -84.5759, the hek293_glo_pod_24 was -6.8943 and the hek293_glo_wauc_24 worked out at 2.321. Besides, the hek293_glo_ec50_24 in the test on HEK293 cells [3] (setting [8]) was -6.073. For the same molecule, in the test with HEK293 cells [3] (time point 32), the hek293_glo_emax_32 is listed as -91.2313, the hek293_glo_pod_32 is reported as -6.927 and the hek293_glo_wauc_32 is on record as 2.36. In the test with HEK293 cells [3] (setting [9]), the hek293_glo_ec50_32 was -6.025. In the test with HEK293 cells [3] (time point 40), the hek293_glo_emax_40 is reported as -94.0423, the hek293_glo_pod_40 was -6.941 and the hek293_glo_wauc_40 is reported as 2.382. In the test with HEK293 cells [3] (setting [10]), the hek293_glo_ec50_40 is -6.071. Also, in the test on HepG2 cells [4], the hepg2_glo_auc is 1.838 and the hepg2_glo_time was 0. For the same molecule, the hepg2_glo_bin entry in the test on HepG2 cells [4] (kinetics bin) is listed as “cv_16 (cv_16: 0 < time < 8)”. In addition, in the test on HepG2 cells [4] (time point 0), the hepg2_glo_emax_0 came out at 0, the hepg2_glo_pod_0 is reported as -4.417 and the hepg2_glo_wauc_0 was found to be 0. In the test on HepG2 cells [4] (time point 8), the hepg2_glo_emax_8 was -63.2822, the hepg2_glo_pod_8 is recorded as -5.131 and the hepg2_glo_wauc_8 is recorded as 1.514. For the same molecule, in the test with HepG2 cells [4] (setting [6]), the hepg2_glo_ec50_8 is -4.735. Moreover, in the test with HepG2 cells [4] (time point 16), the hepg2_glo_emax_16 is listed as -91.4856, the hepg2_glo_pod_16 is on record as -5.607 and the hepg2_glo_wauc_16 came out at 1.892. Further, the hepg2_glo_ec50_16 in the test with HepG2 cells [4] (setting [7]) is recorded as -5.318. In addition, in the test on HepG2 cells [4] (time point 24), the hepg2_glo_emax_24 is -91.3465, the hepg2_glo_pod_24 is -5.6539 and the hepg2_glo_wauc_24 came out at 1.966. Also, the hepg2_glo_ec50_24 with HepG2 cells [4] (setting [8]) is -5.521. Besides, in the test with HepG2 cells [4] (time point 32), the hepg2_glo_emax_32 is listed as -92.3669, the hepg2_glo_pod_32 is on record as -5.816 and the hepg2_glo_wauc_32 is 2.064. Further, in the test with HepG2 cells [4] (setting [9]), the hepg2_glo_ec50_32 is recorded as -5.627. In the test on HepG2 cells [4] (time point 40), the hepg2_glo_emax_40 was -91.0249, the hepg2_glo_pod_40 is given as -5.846 and the hepg2_glo_wauc_40 is reported as 2.087. Also, in the test with HepG2 cells [4] (setting [10]), the hepg2_glo_ec50_40 was -5.656. For the same molecule, in the test on HEK293 cells [5], the hek293_flor_auc is 1.491 and the hek293_flor_time came out at 24. Also, in the test with HEK293 cells [5] (kinetics bin), the hek293_flor_bin result was “cv_46 (cv_46: 24 < time < 32)”. In the test with HEK293 cells [5] (time point 0), the hek293_flor_emax_0 turned out to be 0, the hek293_flor_pod_0 is -4.417 and the hek293_flor_wauc_0 is reported as 0. For the same molecule, in the test with HEK293 cells [5] (time point 8), the hek293_flor_emax_8 amounted to 0, the hek293_flor_pod_8 is -4.417 and the hek293_flor_wauc_8 is reported as 0. In the test with HEK293 cells [5] (time point 16), the hek293_flor_emax_16 is given as 25.2441, the hek293_flor_pod_16 is reported as -4.42 and the hek293_flor_wauc_16 is given as 0.5325. The hek293_flor_ec50_16 with HEK293 cells [5] (setting [7]) is reported as -4.591. Also, in the test on HEK293 cells [5] (time point 24), the hek293_flor_emax_24 came out at 72.6532, the hek293_flor_pod_24 is on record as -4.806 and the hek293_flor_wauc_24 is reported as 1.057. For the same molecule, in the test on HEK293 cells [5] (setting [8]), the hek293_flor_ec50_24 is listed as -4.702. Further, in the test on HEK293 cells [5] (time point 32), the hek293_flor_emax_32 amounted to 99.3082, the hek293_flor_pod_32 is on record as -5.521 and the hek293_flor_wauc_32 worked out at 1.407. Besides, the hek293_flor_ec50_32 with HEK293 cells [5] (setting [9]) was -4.895. In the test with HEK293 cells [5] (time point 40), the hek293_flor_emax_40 was 135.684, the hek293_flor_pod_40 is reported as -5.642 and the hek293_flor_wauc_40 amounted to 1.5. Also, in the test on HEK293 cells [5] (setting [10]), the hek293_flor_ec50_40 is -5.028.
For `O=C(c1ccc(OCCN2CCCCC2)cc1)c1c(-c2ccc(O)cc2)sc2cc(O)ccc12` [Raloxifene hydrochloride], the “AUC score in Judson 2015” value with estrogen receptor (ER) is 0.671.
As to `CC/C(=C(\c1ccccc1)c1ccc(OCCN(C)C)cc1)c1ccccc1` [Tamoxifen citrate], in the test on estrogen receptor (ER), the “AUC score in Judson 2015” value is 0.546.
On to `CC/C(=C(\c1ccccc1)c1ccc(OCCN(C)C)cc1)c1ccccc1` [Tamoxifen], for which the “Cyto(realtime)_median” value in test [1] was 4.64 log10(M)*-1. The “AUC score in Judson 2015” value in the test on estrogen receptor (ER) is 0.447.
Regarding `CN[C@H]1CC[C@@H](c2ccc(Cl)c(Cl)c2)c2ccc(S(N)(=O)=O)cc21` [UK-373911], in test [1], the “Cyto(realtime)_max” value is listed as 5.12 log10(M)*-1 and the “Cyto(realtime)_median” value is recorded as 4.70 log10(M)*-1. Further, the “AUC score in Judson 2015” value with estrogen receptor (ER) is recorded as 6.68e-8.
Take `CCCCCCCCCCCCOC(=O)c1cc(O)c(O)c(O)c1` [dodecyl gallate]: in the test with estrogen receptor (ER), the “AUC score in Judson 2015” value is 0.0773 and the “ER antagonist AUC score” value is given as “higher than 0.01”.
For the molecule `CC[C@H](c1ccc(O)cc1)[C@@H](CC)c1ccc(O)cc1` [meso-Hexestrol], in the test on estrogen receptor (ER), the “AUC score in Judson 2015” value is reported as 0.
As to `CCCCCCCCOC(=O)c1cc(O)c(O)c(O)c1` [octyl gallate], in the test on estrogen receptor (ER), the “AUC score in Judson 2015” value is reported as 0.0768 and the “ER antagonist AUC score” value was “higher than 0.01”.
